Data from patent US20080113915A1, “SAPAP3 knockout mouse and clinical modeling associated with the SAPAP3 gene” (Duke University, priority 2006, published 2008).

What was measured:
[1] = tested on: SAPAP3 knockout animals; details: mouse, in vivo, 10 mg/kg
[2] = tested on: SAPAP3 knockout mice; experiment: Semi-quantitative scoring of lesion severity (scale 0-4); type: in vivo, mouse
Procedure: Four cohorts of eight SAPAP3 knockout mice and four cohorts of eight wild type mice were housed in isolation and allowed to acclimate as above. One cohort of each genotype served as a 5 mg/kg Fluoxetine experimental group, one as a 10 mg/kg Fluoxetine experimental group, one as a vehicle control group, and one as an uninjected control group.

[3] = tested on: SAPAP3 knockout mice; experiment: Light-dark box emergence test after Fluoxetine treatment; type: in vivo, mouse; details: after 6 days of treatment with 5 mg/kg, intraperitoneal
Procedure: In the light dark box test, SAPAP3 knockout mice and wild type mice were individually placed into the dark half a two chamber box. The box contained a completely dark chamber and a chamber lit with a bright light. At time=0, the door was opened between the two chambers.
Following videotaping, the four groups of mice were tested on the light-dark box emergence test.

[4] = tested on: SAPAP3 knockout mice; experiment: Videotaped grooming behaviour scoring after Fluoxetine treatment; type: in vivo, mouse; details: 5 mg/kg daily intraperitoneal, after six days, vs SAPAP3 knockout vehicle control group
Procedure: To ascertain the source of the lesions quantitative, video studies of the knockout mice were performed. Groups of 10 wild type mice and 10 knockout mice were housed such that each mouse was isolated in a single cage. Following an acclimatization period to individual housing, each mouse was videotaped for 24 hours. Three, four-hour sections (10 AM-2 PM, 6 PM-10 PM, and 2 AM-6 AM) of each 24-hour period were watched and scored for a panel of behaviors: grooming, drinking/eating, sleeping, rearing, digging/shifting, or alert/active. When analyzed on either a “time spent” or “number of bouts engaged in” basis, it was obvious that SAPAP3 knockout mice groomed far more than their wild type counterparts in every time period examined (see FIGS. 3 and 4).
Two cohorts of eight SAPAP3 knockout mice and two cohorts of eight wild type mice were housed in isolation and allowed to acclimate as in Example 2. One cohort of each genotype served as an experimental group and the other as a vehicle control group. The experimental groups were given a daily intraperitoneal injection of 5 mg/kg Fluoxetine for fourteen days. The control groups were given a daily vehicle injection under the same conditions.
After six days, mice from each group were individually videotaped and their behaviors scored as in Example 2. […]

[5] = share of SAPAP3 KO mice, Fluoxetine groups (5 and 10 mg/kg) combined, at two weeks

CNCCC(Oc1ccc(C(F)(F)F)cc1)c1ccccc1 (stereo not shown) [Fluoxetine]
toxicity to SAPAP3 knockout animals relative to wild type controls [1]: progressively more toxic
lesion severity (scale of 0-4) ([2]; SAPAP3 knockout mice, 5 and 10 mg/kg groups combined vs vehicle and uninjected groups combined, over a 2 week period): stabilized or improved lesions
Lesion severity: Improve [2, 5]: 28.6%
Lesion severity: No Change [2, 5]: 71.4%
Lesion severity: Worse [2, 5]: 0%
performance on the light-dark box emergence test (latency to leave dark chamber) [3]: significantly improved
bouts of grooming [4]: far fewer bouts of grooming
